Assay results from patent US20100152188A1, “Novel Heterocyclic Compounds” (priority 2005, published 2010).

Experiments:
[1] = system: NCIH460, HCT116, MDAMB-231/U 251; experiment: Anti-cancer screen, mean GI50 over the cell lines; assay type: cell-based; settings: in µM
How it was run: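 Growth was scored by MTT absorbance at 570 nm relative to control wells and a pre-treatment T0 reading. Compounds were tested at five final concentrations (0.01–100 µM, triplicate) for 48 h on NCIH460, HCT116 and U251 cells, each plated at 5000 cells/well 24 h before dosing.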

MDAMB-231/U 251 = experiment: Anti-cancer screen (MTT), MDAMB-231/U 251; assay type: cell-based; settings: for CC50: 48 h, read-out: MDAMB-231/U 251 LC50; for GI50 / IC (TGI): 48 hours with compound, MTT, tested at 0.01-100 µM
How it was run: (§1)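 MTT read-out at 570 nm after 48 h compound exposure (five concentrations, 0.01–100 µM, triplicate). Percent growth calculated against untreated control and a T0 plate read at time of compound addition, giving GI50, TGI and LC50.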

HDAC = HDAC inhibition; assay type: biochemical; settings: for HDAC Inhibition 1 μM: compound at 1 μM; for HDAC Inhibition 10 μM: compound at 10 μM
HCT116 = experiment: Anti-cancer screen (MTT), HCT116; assay type: cell-based; settings: Homo sapiens, HCT-116, 48 hours with compound, tested at 0.01-100 µM
How it was run: as §1

NCIH460 = experiment: Anti-cancer screen (MTT), NCIH460; assay type: cell-based; settings: Homo sapiens, NCI-H460, 48 hours with compound, tested at 0.01-100 µM
How it was run: as §1

## Nc1ccccc1NC(=O)Cc1csc(NC(=O)OCc2nccs2)n1 [Example 23, 1,3-Thiazol-2-ylmethyl(4-{2-[(2-aminophenyl)amino]-2-oxoethyl}-1,3-thiazol-2-yl)carbamate]
[1]
  Mean GI50: >100
MDAMB-231/U 251
  CC50: > 100 µM
  GI50: 31 µM
  IC (TGI): > 100 µM
HDAC
  HDAC Inhibition 1 μM: 11.34
  HDAC Inhibition 10 μM: 5.18
HCT116
  GI50: > 100 µM
  IC (TGI): > 100 µM
  LC50 (concentration giving 50% net cell kill relative to T0): > 100 µM
NCIH460
  GI50: > 100 µM
  IC (TGI): > 100 µM
  LC50: > 100 µM

## Nc1ccccc1NC(=O)Cc1csc(NC(=O)OCc2ccncc2)n1 [Example 24, Pyridin-4-ylmethyl(4-{2-[(2-aminophenyl)amino]-2-oxoethyl}-1,3-thiazol-2-yl)carbamate]
[1]
  Mean GI50: >100
MDAMB-231/U 251
  CC50: > 100 µM
  GI50: > 100 µM
  IC (TGI): > 100 µM
HDAC
  HDAC Inhibition 1 μM: 1.34
  HDAC Inhibition 10 μM: 3.17
HCT116
  GI50: > 100 µM
  IC (TGI): > 100 µM
  LC50 (concentration giving 50% net cell kill relative to T0): > 100 µM
NCIH460
  GI50: > 100 µM
  IC (TGI): > 100 µM
  LC50: > 100 µM

## O=C(Cc1csc(NC(=O)OCc2ccncc2)n1)NOCc1ccccc1 [Example 25, Pyridin-4-ylmethyl(4-{2-[(benzyloxy)amino]-2-oxoethyl}-1,3-thiazol-2-yl)carbamate]
[1]
  Mean GI50: 80.67
MDAMB-231/U 251
  CC50: > 100 µM
  GI50: 85 µM
  IC (TGI): > 100 µM
HDAC
  HDAC Inhibition 1 μM: −0.29
  HDAC Inhibition 10 μM: 6.62
HCT116
  GI50: 65 µM
  IC (TGI): > 100 µM
  LC50 (concentration giving 50% net cell kill relative to T0): > 100 µM
NCIH460
  GI50: 92 µM
  IC (TGI): > 100 µM
  LC50: > 100 µM

## O=C(NCc1ccc(C(=O)NO)cc1)OCc1ccsc1 [Example 27, 3-Thienylmethyl{4-[(hydroxyamino)carbonyl]benzyl}carbamate]
[1]
  Mean GI50: 24.9
MDAMB-231/U 251
  CC50: > 100 µM
  GI50: > 100 µM
  IC (TGI): > 100 µM
HDAC
  IC50: 0.58 µM
  HDAC Inhibition 1 μM: 67.65
  HDAC Inhibition 10 μM: 81.85
HCT116
  GI50: 7 µM
  IC (TGI): 21 µM
  LC50 (concentration giving 50% net cell kill relative to T0): 72 µM
NCIH460
  GI50: 34 µM
  IC (TGI): 64 µM
  LC50: 100 µM

## O=C(NCc1ccc(C(=O)NO)cc1)OCc1cccs1 [Example 28, 2-Thienylmethyl{4-[(hydroxyamino)carbonyl]benzyl}carbamate]
[1]
  Mean GI50: 13
MDAMB-231/U 251
  CC50: 70 µM
  GI50: 5 µM
  IC (TGI): 30 µM
HDAC
  IC50: 0.123 µM
  HDAC Inhibition 1 μM: 50.8
  HDAC Inhibition 10 μM: 63.3
HCT116
  GI50: 5 µM
  IC (TGI): 15 µM
  LC50 (concentration giving 50% net cell kill relative to T0): 62 µM
NCIH460
  GI50: 30 µM
  IC (TGI): 51 µM
  LC50: > 100 µM

## O=C(NCc1ccc(C(=O)NO)cc1)OCc1nc2ccccc2s1 [Example 30, 1,3-Benzothiazol-2-ylmethyl{4-[(hydroxyamino)carbonyl]benzyl}carbamate]
[1]
  Mean GI50: 0.3
MDAMB-231/U 251
  CC50: > 100 µM
  GI50: 0.78 µM
  IC (TGI): > 100 µM
HDAC
  IC50: 0.14 µM
  HDAC Inhibition 1 μM: 84
  HDAC Inhibition 10 μM: 84.6
HCT116
  GI50: 0.23 µM
  IC (TGI): 7 µM
  LC50 (concentration giving 50% net cell kill relative to T0): 61 µM
NCIH460
  GI50: 0.02 µM
  IC (TGI): 0.05 µM
  LC50: 73 µM

## O=C(NCc1ccc(C(=O)NO)cc1)OCc1nccs1 [Example 31, 1,3-Thiazol-2-ylmethyl{4-[(hydroxyamino)carbonyl]benzyl}carbamate]
[1]
  Mean GI50: 10.7
MDAMB-231/U 251
  CC50: > 100 µM
  GI50: 32 µM
  IC (TGI): > 100 µM
HDAC
  IC50: 0.13 µM
  HDAC Inhibition 1 μM: 82.6
  HDAC Inhibition 10 μM: 87.4
HCT116
  GI50: 0.02 µM
  IC (TGI): 0.97 µM
  LC50 (concentration giving 50% net cell kill relative to T0): 39 µM
NCIH460
  GI50: 0.02 µM
  IC (TGI): 0.9 µM
  LC50: 92 µM

## O=C(NCc1ccc(C(=O)NO)cc1)OCC1COc2ccccc2O1 (centres unmarked) [Example 32, 2,3-Dihydro-1,4-benzodioxin-2-ylmethyl {4-[(hydroxyamino)carbonyl]benzyl}carbamate]
[1]
  Mean GI50: 7
MDAMB-231/U 251
  CC50: 80 µM
  GI50: 11 µM
  IC (TGI): 45 µM
HDAC
  HDAC Inhibition 1 μM: 78.12
  HDAC Inhibition 10 μM: 92.67
HCT116
  GI50: 5 µM
  IC (TGI): 25 µM
  LC50 (concentration giving 50% net cell kill relative to T0): > 100 µM
NCIH460
  GI50: 5 µM
  IC (TGI): 42 µM
  LC50: 95 µM

## O=C(NCc1ccc(C(=O)NO)cc1)OCc1nc2ccccc2[nH]1 [Example 33, 1H-Benzimidazol-2-ylmethyl{4-[(hydroxyamino)carbonyl]benzyl}carbamate]
[1]
  Mean GI50: 2.8
MDAMB-231/U 251
  CC50: 60 µM
  GI50: 3 µM
  IC (TGI): 8 µM
HDAC
  IC50: 0.25 µM
  HDAC Inhibition 1 μM: 82.77
  HDAC Inhibition 10 μM: 92.11
HCT116
  GI50: 4.5 µM
  IC (TGI): 20 µM
  LC50 (concentration giving 50% net cell kill relative to T0): > 100 µM
NCIH460
  GI50: 1 µM
  IC (TGI): 68 µM
  LC50: > 100 µM

## O=C(NCc1ccc(C(=O)NO)cc1)OCn1nnc2ccccc21 [Example 34, 1H-1,2,3-Benzotriazol-1-ylmethyl{4-[(hydroxyamino)carbonyl]benzyl}carbamate]
[1]
  Mean GI50: 49.3
MDAMB-231/U 251
  CC50: > 100 µM
  GI50: 30 µM
  IC (TGI): > 100 µM
HDAC
  HDAC Inhibition 1 μM: 62.1
  HDAC Inhibition 10 μM: 98.6
HCT116
  GI50: 60 µM
  IC (TGI): > 100 µM
  LC50 (concentration giving 50% net cell kill relative to T0): > 100 µM
NCIH460
  GI50: 58 µM
  IC (TGI): > 100 µM
  LC50: > 100 µM

## O=C(NCc1ccc(C(=O)NO)cc1)OCc1ccnc2ccccc12 [Example 37, Quinolin-4-ylmethyl{4-[(hydroxyamino)carbonyl]benzyl}carbamate]
[1]
  Mean GI50: 13.3
MDAMB-231/U 251
  CC50: 95 µM
  GI50: 4 µM
  IC (TGI): 18 µM
HDAC
  HDAC Inhibition 1 μM: 67.04
  HDAC Inhibition 10 μM: 85.01
HCT116
  GI50: 6 µM
  IC (TGI): 20 µM
  LC50 (concentration giving 50% net cell kill relative to T0): 65 µM
NCIH460
  GI50: 30 µM
  IC (TGI): 58 µM
  LC50: 90 µM

## CNC(=O)c1ccc(CNC(=O)OCc2cccs2)cc1 [Example 40, 2-Thienylmethyl{4-[(methylamino)carbonyl]benzyl}carbamate]
[1]
  Mean GI50: >100
MDAMB-231/U 251
  CC50: > 100 µM
  GI50: 14 µM
  IC (TGI): > 100 µM
HDAC
  HDAC Inhibition 1 μM: −1.9
  HDAC Inhibition 10 μM: 8.6
HCT116
  GI50: 100 µM
  IC (TGI): > 100 µM
  LC50 (concentration giving 50% net cell kill relative to T0): > 100 µM
NCIH460
  GI50: > 100 µM
  IC (TGI): > 100 µM
  LC50: > 100 µM

## CONC(=O)c1ccc(CNC(=O)OCc2cccs2)cc1 [Example 43, 2-Thienylmethyl{4-[(methoxyamino)carbonyl]benzyl}carbamate]
[1]
  Mean GI50: >100
MDAMB-231/U 251
  CC50: > 100 µM
  GI50: > 100 µM
  IC (TGI): > 100 µM
HDAC
  HDAC Inhibition 1 μM: 1.9
  HDAC Inhibition 10 μM: 8.10
HCT116
  GI50: > 100 µM
  IC (TGI): > 100 µM
  LC50 (concentration giving 50% net cell kill relative to T0): > 100 µM
NCIH460
  GI50: > 100 µM
  IC (TGI): > 100 µM
  LC50: > 100 µM

## CN(O)C(=O)c1ccc(CNC(=O)OCc2c(F)cc(F)cc2F)cc1 [Example 45, 2,4,6-Trifluorobenzyl(4-{[hydroxy(methyl)amino]carbonyl}benzyl)carbamate]
[1]
  Mean GI50: >100
MDAMB-231/U 251
  CC50: > 100 µM
  GI50: 2.5 µM
  IC (TGI): 65 µM
HDAC
  HDAC Inhibition 1 μM: 4.28
  HDAC Inhibition 10 μM: −0.76
HCT116
  GI50: > 100 µM
  IC (TGI): > 100 µM
  LC50 (concentration giving 50% net cell kill relative to T0): > 100 µM
NCIH460
  GI50: 90 µM
  IC (TGI): > 100 µM
  LC50: > 100 µM

## CN(O)C(=O)c1ccc(CNC(=O)OCc2cccs2)cc1 [Example 46, 2-Thienylmethyl(4-{[hydroxy(methyl)amino]carbonyl}benzyl)carbamate]
[1]
  Mean GI50: 66
MDAMB-231/U 251
  CC50: > 100 µM
  GI50: 40 µM
  IC (TGI): 90 µM
HDAC
  HDAC Inhibition 1 μM: −4.01
  HDAC Inhibition 10 μM: −2.70
HCT116
  GI50: 88 µM
  IC (TGI): > 100 µM
  LC50 (concentration giving 50% net cell kill relative to T0): > 100 µM
NCIH460
  GI50: 70 µM
  IC (TGI): > 100 µM
  LC50: > 100 µM

## CN(O)C(=O)c1ccc(CNC(=O)OCc2c(F)c(F)c(F)c(F)c2F)cc1 [Example 47, Tentafluorobenzyl(4-{[hydroxy(methyl)amino]carbonyl}benzyl)carbamate]
[1]
  Mean GI50: 48.33
MDAMB-231/U 251
  CC50: > 100 µM
  GI50: 37 µM
  IC (TGI): 74 µM
HDAC
  HDAC Inhibition 1 μM: −5.89
  HDAC Inhibition 10 μM: −2.12
HCT116
  GI50: 52 µM
  IC (TGI): > 100 µM
  LC50 (concentration giving 50% net cell kill relative to T0): > 100 µM
NCIH460
  GI50: 56 µM
  IC (TGI): > 100 µM
  LC50: > 100 µM

## CON(C)C(=O)c1ccc(CNC(=O)OCc2cccs2)cc1 [Example 48, 2-Thienylmethyl(4-{[methoxy(methyl)amino]carbonyl}benzyl)carbamate]
[1]
  Mean GI50: 1.8
MDAMB-231/U 251
  CC50: > 100 µM
  GI50: 0.03 µM
  IC (TGI): 57 µM
HDAC
  HDAC Inhibition 1 μM: 4.8
  HDAC Inhibition 10 μM: 1.9
HCT116
  GI50: 4.3 µM
  IC (TGI): 9 µM
  LC50 (concentration giving 50% net cell kill relative to T0): 65 µM
NCIH460
  GI50: 1 µM
  IC (TGI): 31 µM
  LC50: > 100 µM
